The NIST ThermoML archive (doi:10.1021/je060271a)
Where “and” joins values, the source holds several entries; their conditions need not be identical. Equal values may be shown once.

Details: 283.15 K, Liquid, Vibrating tube method

CCCCCCCC(=O)OCC(COC(=O)CCCCCCC)(COC(=O)CCCCCCC)COC(=O)CCCCCCC [pentaerythritol tetraoctanoate]
Details	mass density
4499.9 kPa	972.9 kg/m3
4501.9 kPa	972.9 kg/m3
4502.4 kPa	972.9 kg/m3
4503 kPa	972.9 kg/m3 and 972.8 kg/m3
4503.5 kPa	972.8 kg/m3 and 972.9 kg/m3
4505.4 kPa	972.9 kg/m3
4508 kPa	973 kg/m3
4510.6 kPa	972.9 kg/m3
4512.1 kPa	972.8 kg/m3
4513.2 kPa	972.9 kg/m3
4519.1 kPa	972.9 kg/m3
4544.7 kPa	972.8 kg/m3
4566.3 kPa	972.8 kg/m3
4589 kPa	972.9 kg/m3
4613.1 kPa	972.9 kg/m3
4644 kPa	972.9 kg/m3
4671.2 kPa	973 kg/m3
4696.3 kPa	973 kg/m3
4730.1 kPa	973 kg/m3
4758.6 kPa	973 kg/m3
4787.7 kPa	973.1 kg/m3
4817.5 kPa	973.1 kg/m3
4847.6 kPa	972.9 kg/m3
4883.9 kPa	973 kg/m3
4914.4 kPa	973.1 kg/m3
4945.7 kPa	973.1 kg/m3
4982.7 kPa	973.1 kg/m3
5014 kPa	973.2 kg/m3
5046.2 kPa	973.1 kg/m3
5085.5 kPa	973.2 kg/m3
5118.2 kPa	973.2 kg/m3
5152.1 kPa	973.1 kg/m3
5187.4 kPa	973.3 kg/m3
5230.5 kPa	973.3 kg/m3
5268 kPa	973.4 kg/m3
5301.1 kPa	973.3 kg/m3
5328.4 kPa	973.3 kg/m3
5360.9 kPa	973.4 kg/m3
5388.3 kPa	973.3 kg/m3
5416.4 kPa	973.3 kg/m3
5445 kPa	973.4 kg/m3
5479.2 kPa	973.5 kg/m3
5507.9 kPa	973.4 kg/m3
5537.9 kPa	973.4 kg/m3
5567.3 kPa	973.5 kg/m3
5603.1 kPa	973.6 kg/m3
5664.1 kPa	973.4 kg/m3
5695.6 kPa	973.6 kg/m3
5733.6 kPa	973.7 kg/m3
5766.5 kPa	973.5 kg/m3
5806.4 kPa	973.6 kg/m3
5839.8 kPa	973.6 kg/m3
5864 kPa	973.6 kg/m3
5890.1 kPa	973.8 kg/m3
5912.2 kPa	973.6 kg/m3
5934.9 kPa	973.7 kg/m3
5958.4 kPa	973.7 kg/m3
5985.4 kPa	973.8 kg/m3
6009 kPa	973.7 kg/m3
6033.2 kPa	973.8 kg/m3
6058.3 kPa	973.9 kg/m3
6083.5 kPa	973.7 kg/m3
6114.7 kPa	973.7 kg/m3
6133.8 kPa	973.8 kg/m3
6146.1 kPa	973.7 kg/m3
6160.5 kPa	973.8 kg/m3
6172.9 kPa	973.9 kg/m3
6185.2 kPa	973.8 kg/m3
6197.6 kPa	973.8 kg/m3
6211.8 kPa	973.8 kg/m3
6223.9 kPa	973.8 kg/m3
6236.2 kPa	973.9 kg/m3
6249.3 kPa	973.9 kg/m3
6264.2 kPa	973.9 kg/m3
6277.1 kPa	974.1 kg/m3
6289.8 kPa	973.9 kg/m3
6302.4 kPa	973.9 kg/m3
6317.2 kPa	973.8 kg/m3
6330 kPa	973.9 kg/m3
6342.8 kPa	974 kg/m3
6358 kPa	974 kg/m3
6370.8 kPa	973.9 kg/m3
6383.6 kPa	973.9 kg/m3
6399 kPa	973.9 kg/m3
6412.5 kPa	974 kg/m3
6425.5 kPa	973.9 kg/m3
6438.7 kPa	974 kg/m3
6452 kPa	974 kg/m3
6467.9 kPa	974 kg/m3
6481 kPa	974 kg/m3
6494.5 kPa	974.2 kg/m3
6510.4 kPa	974 kg/m3
6523.9 kPa	974 kg/m3
6537.9 kPa	974.1 kg/m3
6551.3 kPa	973.9 kg/m3
6567.7 kPa	974.1 kg/m3
6581.8 kPa	974 kg/m3
6596.4 kPa	974.1 kg/m3
6610.8 kPa	974.1 kg/m3
6627.5 kPa	974.1 kg/m3
6641.5 kPa	974.1 kg/m3
6655.5 kPa	974 kg/m3
6669.7 kPa	974.1 kg/m3
6686.6 kPa	974.2 kg/m3
6700.8 kPa	974.1 kg/m3
6715.1 kPa	974.1 kg/m3
6732.2 kPa	974.1 kg/m3
6746.8 kPa	974.1 kg/m3
6761.4 kPa	974.2 kg/m3
6776.5 kPa	974.1 kg/m3
6793.7 kPa	974.1 kg/m3
6808.6 kPa	974.2 kg/m3
6823.5 kPa	974.2 kg/m3
6838.3 kPa	974 kg/m3
6856.4 kPa	974.1 kg/m3
6871.7 kPa	974.2 kg/m3
6886.9 kPa	974.2 kg/m3
6902.1 kPa	974.3 kg/m3
6920.2 kPa	974.3 kg/m3
6935.4 kPa	974.3 kg/m3
6950.9 kPa	974.3 kg/m3
6969.4 kPa	974.3 kg/m3
6985 kPa	974.3 kg/m3
7001 kPa	974.3 kg/m3
7016.8 kPa	974.3 kg/m3
7035.6 kPa	974.3 kg/m3
7051.3 kPa	974.3 kg/m3
7067 kPa	974.3 kg/m3
7083.6 kPa	974.3 kg/m3
7102.8 kPa	974.3 kg/m3
7119 kPa	974.3 kg/m3
7135.2 kPa	974.4 kg/m3
7154.7 kPa	974.4 kg/m3
7171.1 kPa	974.3 kg/m3
7187.5 kPa	974.3 kg/m3
7204.5 kPa	974.4 kg/m3
7221.2 kPa	974.5 kg/m3
7241.1 kPa	974.5 kg/m3
7257.8 kPa	974.4 kg/m3
7274.9 kPa	974.6 kg/m3
7295 kPa	974.5 kg/m3
7311.7 kPa	974.4 kg/m3
7329.3 kPa	974.4 kg/m3
7346.6 kPa	974.5 kg/m3
7367.1 kPa	974.6 kg/m3
7384.6 kPa	974.5 kg/m3
7402.3 kPa	974.6 kg/m3
7423.4 kPa	974.5 kg/m3
